ChEMBL document CHEMBL1135235, “Structure-activity relationships of oxime neurokinin antagonists: oxime modifications” (Bioorg Med Chem Lett, 2002)

Key:
Format in all cases: cell-based
Substance-P receptor [1] = biological target: T1, Substance-P receptor (Homo sapiens, UniProt P25103); experiment: The compound was evaluated for the binding affinity against recombinant human Tachykinin receptor 1 in CHO cells using [3H]-Sar SP as a radioligand; settings: concentration not given here
[2] = biological target: T2, Substance-K receptor (Homo sapiens) (UniProt P21452); experiment: (§1) Binding affinity against recombinant human tachykinin receptor 2 in CHO cells using [3H]NKA as a radioligand; design: concentration or dose not given beside the values; settings: concentration not given here
T2 sequence (whole entry): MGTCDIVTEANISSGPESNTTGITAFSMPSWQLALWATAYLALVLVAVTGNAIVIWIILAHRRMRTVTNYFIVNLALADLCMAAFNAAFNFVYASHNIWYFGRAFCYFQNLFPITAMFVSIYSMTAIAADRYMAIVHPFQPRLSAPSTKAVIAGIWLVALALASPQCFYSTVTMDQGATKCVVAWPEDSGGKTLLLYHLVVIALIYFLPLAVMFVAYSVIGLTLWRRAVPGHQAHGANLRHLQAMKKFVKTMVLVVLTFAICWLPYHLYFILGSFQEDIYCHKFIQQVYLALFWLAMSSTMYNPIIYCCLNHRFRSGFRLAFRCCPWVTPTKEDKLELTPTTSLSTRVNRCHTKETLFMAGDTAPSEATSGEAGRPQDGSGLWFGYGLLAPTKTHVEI

Substance-P receptor [3] = biological target: T1, Substance-P receptor; experiment: Binding affinity against recombinant human tachykinin receptor 1 in CHO cells using [3H]-Sar SP as a radioligand
Substance-K receptor = biological target: T3, Substance-K receptor (Homo sapiens, UniProt P21452); experiment: as §1
T3 sequence (P21452 whole entry): T2 sequence (whole entry)

T1 sequence (P25103 whole entry): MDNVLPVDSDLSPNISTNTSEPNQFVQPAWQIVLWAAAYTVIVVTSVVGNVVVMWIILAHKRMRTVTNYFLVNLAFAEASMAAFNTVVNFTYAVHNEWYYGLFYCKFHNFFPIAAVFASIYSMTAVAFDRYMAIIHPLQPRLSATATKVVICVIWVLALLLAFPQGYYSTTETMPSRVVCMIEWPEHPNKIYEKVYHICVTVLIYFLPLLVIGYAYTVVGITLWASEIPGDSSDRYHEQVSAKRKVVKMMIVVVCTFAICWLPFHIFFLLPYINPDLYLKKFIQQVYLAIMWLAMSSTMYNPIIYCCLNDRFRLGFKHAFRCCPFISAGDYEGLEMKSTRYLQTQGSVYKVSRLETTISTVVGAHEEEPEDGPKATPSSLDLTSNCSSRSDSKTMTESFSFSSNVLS

SMILES | inhibition (Substance-P receptor [1]) [%] | inhibition [2] [%] | Ki (Substance-P receptor [3]) [nM] | Ki (Substance-K receptor) [nM]
CC(C)CO/N=C(\COCc1cc(C(F)(F)F)cc(C(F)(F)F)c1)C(CCN1CCC(O)(c2ccccc2)CC1)c1ccc(Cl)c(Cl)c1 (stereo not drawn) | 43 | 11 | – | –
CC/C=C(\COCc1cc(C(F)(F)F)cc(C(F)(F)F)c1)C(CCN1CCC(O)(c2ccccc2)CC1)c1ccc(Cl)c(Cl)c1 (stereo not drawn) | – | 28 | 57 | –
CCO/N=C(\COCc1cc(C(F)(F)F)cc(C(F)(F)F)c1)C(CCN1CCC(O)(c2ccccc2)CC1)c1ccc(Cl)c(Cl)c1 (stereo not drawn) | – | – | 81 | 107
COCCO/N=C(\CN(C)C(=O)c1cc(Cl)cc(Cl)c1)C(CCN1CCC(N2CCCCC2=O)CC1)c1ccc(Cl)c(Cl)c1 (stereo not drawn) | – | – | 2.4 | 3.1
COC(=O)CO/N=C(\CN(C)C(=O)c1cc(Cl)cc(Cl)c1)C(CCN1CCC(N2CCCCC2=O)CC1)c1ccc(Cl)c(Cl)c1 (stereo not drawn) | – | – | 4.7 | 16.7
O=C(COCc1cc(C(F)(F)F)cc(C(F)(F)F)c1)C(CCN1CCC(O)(c2ccccc2)CC1)c1ccc(Cl)c(Cl)c1 (stereo not drawn) | – | – | 15 | 236
CO/N=C(\CN(C)C(=O)c1cc(Cl)cc(Cl)c1)C(CCN1CCC(N2CCCCC2=O)CC1)c1ccc(Cl)c(Cl)c1 (stereo not drawn) | – | – | 4.7 | 1.6
NC(=O)CO/N=C(\COCc1cc(C(F)(F)F)cc(C(F)(F)F)c1)C(CCN1CCC(O)(c2ccccc2)CC1)c1ccc(Cl)c(Cl)c1 (stereo not drawn) | – | – | 17 | 58
COCCNC(=O)CO/N=C(\CN(C)C(=O)c1cc(Cl)cc(Cl)c1)C(CCN1CCC(N2CCCCC2=O)CC1)c1ccc(Cl)c(Cl)c1 (stereo not drawn) | – | – | 2.2 | 48
CC(C)(C)O/N=C(\COCc1cc(C(F)(F)F)cc(C(F)(F)F)c1)C(CCN1CCC(O)(c2ccccc2)CC1)c1ccc(Cl)c(Cl)c1 (stereo not drawn) | 46 | 28 | – | –
CNC(=O)CO/N=C(\COCc1cc(C(F)(F)F)cc(C(F)(F)F)c1)C(CCN1CCC(O)(c2ccccc2)CC1)c1ccc(Cl)c(Cl)c1 (stereo not drawn) | – | – | 24 | 45
COCO/N=C(\COCc1cc(C(F)(F)F)cc(C(F)(F)F)c1)C(CCN1CCC(O)(c2ccccc2)CC1)c1ccc(Cl)c(Cl)c1 (stereo not drawn) | – | – | 49 | 42
COCCO/N=C(\COCc1cc(C(F)(F)F)cc(C(F)(F)F)c1)C(CCN1CCC(O)(c2ccccc2)CC1)c1ccc(Cl)c(Cl)c1 (stereo not drawn) | – | – | 7 | 50
CN(C/C(=N\OCCC[N+](C)(C)C)C(CCN1CCC(N2CCCCC2=O)CC1)c1ccc(Cl)c(Cl)c1)C(=O)c1cc(Cl)cc(Cl)c1 (stereo not drawn) | – | – | 1.8 | 590
OCCO/N=C(\COCc1cc(C(F)(F)F)cc(C(F)(F)F)c1)C(CCN1CCC(O)(c2ccccc2)CC1)c1ccc(Cl)c(Cl)c1 (stereo not drawn) | – | – | 20 | 14
CN(C/C(=N\OCc1c[nH]cn1)C(CCN1CCC(N2CCCCC2=O)CC1)c1ccc(Cl)c(Cl)c1)C(=O)c1cc(Cl)cc(Cl)c1 (stereo not drawn) | – | – | 2.2 | 8.5
CSCCCO/N=C(\CN(C)C(=O)c1cc(Cl)cc(Cl)c1)C(CCN1CCC(N2CCCCC2=O)CC1)c1ccc(Cl)c(Cl)c1 (stereo not drawn) | – | – | 7.4 | 11.5
CN(C)/N=C(\COCc1cc(C(F)(F)F)cc(C(F)(F)F)c1)C(CCN1CCC(O)(c2ccccc2)CC1)c1ccc(Cl)c(Cl)c1 (stereo not drawn) | – | – | 38 | 24
CO/C=C(\COCc1cc(C(F)(F)F)cc(C(F)(F)F)c1)C(CCN1CCC(O)(c2ccccc2)CC1)c1ccc(Cl)c(Cl)c1 (stereo not drawn) | – | 35 | 33 | –
OC1(c2ccccc2)CCN(CCC(/C(COCc2cc(C(F)(F)F)cc(C(F)(F)F)c2)=N/Oc2ccccc2)c2ccc(Cl)c(Cl)c2)CC1 (stereo not drawn) | 32 | 23 | – | –
COC(=O)CO/N=C(\COCc1cc(C(F)(F)F)cc(C(F)(F)F)c1)C(CCN1CCC(O)(c2ccccc2)CC1)c1ccc(Cl)c(Cl)c1 (stereo not drawn) | – | – | 25 | 198
O=C(O)CO/N=C(\COCc1cc(C(F)(F)F)cc(C(F)(F)F)c1)C(CCN1CCC(O)(c2ccccc2)CC1)c1ccc(Cl)c(Cl)c1 (stereo not drawn) | – | 20 | 8 | –
CN(C)CCO/N=C(\COCc1cc(C(F)(F)F)cc(C(F)(F)F)c1)C(CCN1CCC(O)(c2ccccc2)CC1)c1ccc(Cl)c(Cl)c1 (stereo not drawn) | – | 11 | 103 | –
CN(C/C(=N\OCCn1ccnc1)C(CCN1CCC(N2CCCCC2=O)CC1)c1ccc(Cl)c(Cl)c1)C(=O)c1cc(Cl)cc(Cl)c1 (stereo not drawn) | – | – | 2.8 | 5.4
CN(C/C(=N\OCCCS(=O)(=O)O)C(CCN1CCC(N2CCCCC2=O)CC1)c1ccc(Cl)c(Cl)c1)C(=O)c1cc(Cl)cc(Cl)c1 (stereo not drawn) | – | – | 3.3 | 2.7
CONC(COCc1cc(C(F)(F)F)cc(C(F)(F)F)c1)C(CCN1CCC(O)(c2ccccc2)CC1)c1ccc(Cl)c(Cl)c1 (stereo not drawn) | – | – | 25 | 350
CN(C/C(=N\OCC(C)(C)O)C(CCN1CCC(N2CCCCC2=O)CC1)c1ccc(Cl)c(Cl)c1)C(=O)c1cc(Cl)cc(Cl)c1 (stereo not drawn) | – | – | 1.9 | 23
N#CO/N=C(\COCc1cc(C(F)(F)F)cc(C(F)(F)F)c1)C(CCN1CCC(O)(c2ccccc2)CC1)c1ccc(Cl)c(Cl)c1 (stereo not drawn) | – | – | 15 | 19
N=C(CO/N=C(\COCc1cc(C(F)(F)F)cc(C(F)(F)F)c1)C(CCN1CCC(O)(c2ccccc2)CC1)c1ccc(Cl)c(Cl)c1)NO (stereo not drawn) | – | – | 17 | 19
C=CCO/N=C(\COCc1cc(C(F)(F)F)cc(C(F)(F)F)c1)C(CCN1CCC(O)(c2ccccc2)CC1)c1ccc(Cl)c(Cl)c1 (stereo not drawn) | – | – | 100 | 215

Continued by falling Ki (Substance-P receptor [3]), values first:

inhibition (Substance-P receptor [1]) [%] | inhibition [2] [%] | Ki (Substance-P receptor [3]) [nM] | Ki (Substance-K receptor) [nM] | SMILES
– | – | 1.7 | 5 | CN(C/C(=N\OC(F)F)C(CCN1CCC(N2CCCCC2=O)CC1)c1ccc(Cl)c(Cl)c1)C(=O)c1cc(Cl)cc(Cl)c1 (stereo not drawn)
– | – | 1.7 | 25 | CN(C/C(=N\OCCCn1cccn1)C(CCN1CCC(N2CCCCC2=O)CC1)c1ccc(Cl)c(Cl)c1)C(=O)c1cc(Cl)cc(Cl)c1 (stereo not drawn)
– | – | 1.6 | 6.8 | CN(C/C(=N\OCCCn1ccnc1)C(CCN1CCC(N2CCCCC2=O)CC1)c1ccc(Cl)c(Cl)c1)C(=O)c1cc(Cl)cc(Cl)c1 (stereo not drawn)
– | – | 1.5 | 1.4 | CN(C/C(=N\OCC#N)C(CCN1CCC(N2CCCCC2=O)CC1)c1ccc(Cl)c(Cl)c1)C(=O)c1cc(Cl)cc(Cl)c1 (stereo not drawn)
– | – | 1.2 | 4.2 | CN(C/C(=N\OCC(=O)NO)C(CCN1CCC(N2CCCCC2=O)CC1)c1ccc(Cl)c(Cl)c1)C(=O)c1cc(Cl)cc(Cl)c1 (stereo not drawn)
– | – | 1.2 | 4.5 | CN(C/C(=N\OCCCNS(C)(=O)=O)C(CCN1CCC(N2CCCCC2=O)CC1)c1ccc(Cl)c(Cl)c1)C(=O)c1cc(Cl)cc(Cl)c1 (stereo not drawn)
– | – | 1 | 1.7 | CNC(=O)NCCCO/N=C(\CN(C)C(=O)c1cc(Cl)cc(Cl)c1)C(CCN1CCC(N2CCCCC2=O)CC1)c1ccc(Cl)c(Cl)c1 (stereo not drawn)
– | – | 0.9 | 3.2 | CN(C/C(=N\OCCCS(C)(=O)=O)C(CCN1CCC(N2CCCCC2=O)CC1)c1ccc(Cl)c(Cl)c1)C(=O)c1cc(Cl)cc(Cl)c1 (stereo not drawn)
– | – | 0.9 | 2 | CN(C/C(=N\OCC(N)=O)C(CCN1CCC(N2CCCCC2=O)CC1)c1ccc(Cl)c(Cl)c1)C(=O)c1cc(Cl)cc(Cl)c1 (stereo not drawn)
– | – | 0.8 | 17 | CN(C/C(=N\OCCCn1cnnn1)C(CCN1CCC(N2CCCCC2=O)CC1)c1ccc(Cl)c(Cl)c1)C(=O)c1cc(Cl)cc(Cl)c1 (stereo not drawn)
– | – | 0.8 | 0.8 | CN(C/C(=N\OCF)C(CCN1CCC(N2CCCCC2=O)CC1)c1ccc(Cl)c(Cl)c1)C(=O)c1cc(Cl)cc(Cl)c1 (stereo not drawn)
– | – | 0.8 | 3.5 | CN(C/C(=N\OCCC[S+](C)[O-])C(CCN1CCC(N2CCCCC2=O)CC1)c1ccc(Cl)c(Cl)c1)C(=O)c1cc(Cl)cc(Cl)c1 (stereo not drawn)
– | – | 0.7 | 1.5 | CN(C/C(=N\OCCCO)C(CCN1CCC(N2CCCCC2=O)CC1)c1ccc(Cl)c(Cl)c1)C(=O)c1cc(Cl)cc(Cl)c1 (stereo not drawn)
– | – | 0.7 | 4.8 | CN(C/C(=N\OCCCn1cncn1)C(CCN1CCC(N2CCCCC2=O)CC1)c1ccc(Cl)c(Cl)c1)C(=O)c1cc(Cl)cc(Cl)c1 (stereo not drawn)
– | – | 0.7 | 394 | CN(C/C(=N\OCC(=O)O)C(CCN1CCC(N2CCCCC2=O)CC1)c1ccc(Cl)c(Cl)c1)C(=O)c1cc(Cl)cc(Cl)c1 (stereo not drawn)
– | – | 0.7 | 8.8 | CN(C/C(=N\OCCCN)C(CCN1CCC(N2CCCCC2=O)CC1)c1ccc(Cl)c(Cl)c1)C(=O)c1cc(Cl)cc(Cl)c1 (stereo not drawn)
– | – | 0.6 | 0.8 | CN(C/C(=N\OCCO)C(CCN1CCC(N2CCCCC2=O)CC1)c1ccc(Cl)c(Cl)c1)C(=O)c1cc(Cl)cc(Cl)c1 (stereo not drawn)
– | – | 0.5 | 50 | CN(C/C(=N\OCCN1CCNCC1)C(CCN1CCC(N2CCCCC2=O)CC1)c1ccc(Cl)c(Cl)c1)C(=O)c1cc(Cl)cc(Cl)c1 (stereo not drawn)
– | – | 0.4 | 0.5 | CN(C/C(=N\OCC(=N)NO)[C@H](CCN1CCC(N2CCCCC2=O)CC1)c1ccc(Cl)c(Cl)c1)C(=O)c1cc(Cl)cc(Cl)c1
